The molecules below were run on p-IKKa levels in L363 (NIK translocated multiple myeloma) cells (assay: Assay 2: Effect of compounds on p-IKKa levels in L363 (NIK translocated multiple myeloma) cells). Conditions: Homo sapiens, L-363, 6 h, read-out: Assay 2 IC50 (nM), p-IKKa (Ser 176/180) in BAFF stimulated L363 cells with MG132, 6 h; average if tested more than once.
Format: cell-based
Method in brief: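 Read-out is p-IKKa Ser176/180 by AlphaLISA SureFire in lysates. Cells were BAFF-primed (250 ng/ml) overnight or left unstimulated, then exposed 6 h at 37 °C to compound with MG132 (10 μM), 0.3% DMSO. IC50 from sigmoidal curve fit, normalized between stimulated and unstimulated controls.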
For Cc1c(Nc2nccc(-c3cccc(-c4cc([C@@]5(O)C(=O)N(C)CC5(F)F)on4)n3)n2)cnn1C [Example 223, (R)-3-(3-(6-(2-((1,5-Dimethyl-1H-pyrazol-4-yl)amino)pyrimidin-4-yl)pyridin-2-yl)isoxazol-5-yl)-4,4-difluoro-3-hydroxy-1-methylpyrrolidin-2-one], the IC50 was under 50 nM. Molecule Cc1c(Nc2nccc(-c3cccc(-c4cc([C@]5(O)CCN(C)C5=O)on4)n3)n2)cnn1CC(F)F [Example 225, (R)-3-(3-(6-(2-((1-(2,2-Difluoroethyl)-5-methyl-1H-pyrazol-4-yl)amino)pyrimidin-4-yl)pyridin-2-yl)isoxazol-5-yl)-3-hydroxy-1-methylpyrrolidin-2-one] has an IC50 of under 50 nM. In the case of CCc1c(Nc2nccc(-c3cccc(-c4cc([C@]5(O)CCN(C)C5=O)on4)n3)n2)cnn1C [Example 226, (R)-3-(3-(6-(2-((5-Ethyl-1-methyl-1H-pyrazol-4-yl)amino)pyrimidin-4-yl)pyridin-2-yl)isoxazol-5-yl)-3-hydroxy-1-methylpyrrolidin-2-one], the IC50 is reported as under 50 nM. Cc1c(Nc2nccc(-c3cccc(-c4cc([C@]5(O)CCN(C)C5=O)on4)n3)n2)cnn1C(F)F [Example 227, (R)-3-(3-(6-(2-((1-(Difluoromethyl)-5-methyl-1H-pyrazol-4-yl)amino)pyrimidin-4-yl)pyridin-2-yl)isoxazol-5-yl)-3-hydroxy-1-methylpyrrolidin-2-one] gave an IC50 of under 50 nM. CN1CC[C@@](O)(c2cc(-c3cccc(-c4ccnc(Nc5cnn(C)c5C5CC5)n4)n3)no2)C1=O [Example 228, (R)-3-(3-(6-(2-((5-Cyclopropyl-1-methyl-1H-pyrazol-4-yl)amino)pyrimidin-4-yl)pyridin-2-yl)isoxazol-5-yl)-3-hydroxy-1-methylpyrrolidin-2-one] showed an IC50 of under 50 nM. Cc1nscc1Nc1nccc(-c2cccc(-c3cc([C@]4(O)CCN(C)C4=O)on3)n2)n1 [Example 229, (R)-3-Hydroxy-1-methyl-3-(3-(6-(2-((3-methylisothiazol-4-yl)amino)pyrimidin-4-yl)pyridin-2-yl)isoxazol-5-yl)pyrrolidin-2-one] gave an IC50 of under 50 nM. Work on COc1cn([C@H]2C[C@@H](O)C2)nc1Nc1nccc(-c2cccc(-c3cc([C@]4(O)CCN(C)C4=O)on3)n2)n1 [Example 230, (R)-3-Hydroxy-3-(3-(6-(2-((1-((1s,3s)-3-hydroxycyclobutyl)-4-methoxy-1H-pyrazol-3-yl)amino)pyrimidin-4-yl)pyridin-2-yl)isoxazol-5-yl)-1-methylpyrrolidin-2-one] yielded an IC50 of under 50 nM. COc1cn([C@H]2C[C@H](O)C2)nc1Nc1nccc(-c2cccc(-c3cc([C@]4(O)CCN(C)C4=O)on3)n2)n1 [Example 231, (R)-3-Hydroxy-3-(3-(6-(2-((1-((1r,3r)-3-hydroxycyclobutyl)-4-methoxy-1H-pyrazol-3-yl)amino)pyrimidin-4-yl)pyridin-2-yl)isoxazol-5-yl)-1-methylpyrrolidin-2-one] showed an IC50 of under 50 nM. With CN1CC[C@@](O)(c2cc(-c3cccc(-c4ccnc(Nc5cn(C)nc5OCCO)n4)n3)no2)C1=O [Example 232, (R)-3-Hydroxy-3-(3-(6-(2-((3-(2-hydroxyethoxy)-1-methyl-1H-pyrazol-4-yl)amino)pyrimidin-4-yl)pyridin-2-yl)isoxazol-5-yl)-1-methylpyrrolidin-2-one] the IC50 was 50 to 500 nM. In the case of Cc1nn(C2CCOCC2)cc1Nc1nccc(-c2cccc(-c3cc([C@]4(O)CCN(C)C4=O)on3)n2)n1 [Example 233, (R)-3-Hydroxy-1-methyl-3-(3-(6-(2-((3-methyl-1-(tetrahydro-2H-pyran-4-yl)-1H-pyrazol-4-yl)amino)pyrimidin-4-yl)pyridin-2-yl)isoxazol-5-yl)pyrrolidin-2-one], the IC50 is reported as under 50 nM. Molecule Cc1nn(CC(C)(C)O)cc1Nc1nccc(-c2cccc(-c3cc([C@]4(O)CCN(C)C4=O)on3)n2)n1 [Example 234, (R)-3-Hydroxy-3-(3-(6-(2-((1-(2-hydroxy-2-methylpropyl)-3-methyl-1H-pyrazol-4-yl)amino)pyrimidin-4-yl)pyridin-2-yl)isoxazol-5-yl)-1-methylpyrrolidin-2-one] has an IC50 of under 50 nM. Cc1nn(CC(C)(C)O)cc1Nc1nccc(-c2cccc(-c3cc([C@@]4(O)C(=O)N(C)CC4(F)F)on3)n2)n1 [Example 235, (R)-4,4-Difluoro-3-hydroxy-3-(3-(6-(2-((1-(2-hydroxy-2-methylpropyl)-3-methyl-1H-pyrazol-4-yl)amino)pyrimidin-4-yl)pyridin-2-yl)isoxazol-5-yl)-1-methylpyrrolidin-2-one] showed an IC50 of under 50 nM. With Cc1noc(C)c1Nc1nccc(-c2cccc(-c3cc([C@]4(O)CCN(C)C4=O)on3)n2)n1 [Example 236, (R)-3-(3-(6-(2-((3,5-Dimethylisoxazol-4-yl)amino)pyrimidin-4-yl)pyridin-2-yl)isoxazol-5-yl)-3-hydroxy-1-methylpyrrolidin-2-one] the IC50 was 50 to 500 nM. For CCn1ccc(Nc2nccc(-c3cccc(-c4cc([C@]5(O)CCN(C)C5=O)no4)n3)n2)n1 [Example 237, (R)-3-(5-(6-(2-((1-Ethyl-1H-pyrazol-3-yl)amino)pyrimidin-4-yl)pyridin-2-yl)isoxazol-3-yl)-3-hydroxy-1-methylpyrrolidin-2-one], the IC50 was under 50 nM. Work on Cc1c(Nc2nccc(-c3cccc(-c4cc([C@]5(O)CCN(C)C5=O)no4)n3)n2)cnn1C [Example 238, (R)-3-(5-(6-(2-((1,5-Dimethyl-1H-pyrazol-4-yl)amino)pyrimidin-4-yl)pyridin-2-yl)isoxazol-3-yl)-3-hydroxy-1-methylpyrrolidin-2-one] yielded an IC50 of under 50 nM. Work on CN1CC(F)(F)[C@@](O)(c2cc(-c3cccc(-c4ccnc(Nc5cnn6c5CCCC6)n4)n3)no2)C1=O [Example 239, (R)-4,4-Difluoro-3-hydroxy-1-methyl-3-(3-(6-(2-((4,5,6,7-tetrahydropyrazolo[1,5-a]pyridin-3-yl)amino)pyrimidin-4-yl)pyridin-2-yl)isoxazol-5-yl)pyrrolidin-2-one] yielded an IC50 of 50 to 500 nM. CN1C(=O)[C@](O)(c2cc(-c3cccc(-c4ccnc(Nc5cnn(C)c5)n4)n3)no2)[C@H]2C[C@H]21 [Example 240, (1R,4R,5S)-4-Hydroxy-2-methyl-4-(3-(6-(2-((1-methyl-1H-pyrazol-4-yl)amino)pyrimidin-4-yl)pyridin-2-yl)isoxazol-5-yl)-2-azabicyclo[3.1.0]hexan-3-one] gave an IC50 of 50 to 500 nM. Cc1c(Nc2nccc(-c3cccc(-c4cc([C@@]5(O)C(=O)N(C)[C@@H]6C[C@@H]65)on4)n3)n2)cnn1C [Example 241, (1R,4R,5S)-4-(3-(6-(2-((1,5-Dimethyl-1H-pyrazol-4-yl)amino)pyrimidin-4-yl)pyridin-2-yl)isoxazol-5-yl)-4-hydroxy-2-methyl-2-azabicyclo[3.1.0]hexan-3-one] showed an IC50 of 50 to 500 nM. Work on Cc1c(Nc2nccc(-c3cccc(-c4cc([C@@]5(O)C(=O)N(C)CC5(F)F)on4)n3)n2)cnn1CC(C)(C)O [Example 242, (R)-4,4-Difluoro-3-hydroxy-3-(3-(6-(2-((1-(2-hydroxy-2-methylpropyl)-5-methyl-1H-pyrazol-4-yl)amino)pyrimidin-4-yl)pyridin-2-yl)isoxazol-5-yl)-1-methylpyrrolidin-2-one] yielded an IC50 of 50 to 500 nM. CN1CC(F)(F)[C@@](O)(c2cc(-c3cccc(-c4ccnc(Nc5cnn6c5CCC6)n4)n3)no2)C1=O [Example 243, (R)-3-(3-(6-(2-((5,6-Dihydro-4H-pyrrolo[1,2-b]pyrazol-3-yl)amino)pyrimidin-4-yl)pyridin-2-yl)isoxazol-5-yl)-4,4-difluoro-3-hydroxy-1-methylpyrrolidin-2-one] was tested, and the IC50 was under 50 nM. For Cc1cccc(Nc2nccc(-c3cccc(-c4cc([C@]5(O)CCN(C)C5=O)on4)n3)n2)n1 [Example 244, (R)-3-Hydroxy-1-methyl-3-(3-(6-(2-((6-methylpyridin-2-yl)amino)pyrimidin-4-yl)pyridin-2-yl)isoxazol-5-yl)pyrrolidin-2-one], the IC50 was 50 to 500 nM. For Cc1cncc(Nc2nccc(-c3cccc(-c4cc([C@]5(O)CCN(C)C5=O)on4)n3)n2)c1 [Example 245, (R)-3-Hydroxy-1-methyl-3-(3-(6-(2-((5-methylpyridin-3-yl)amino)pyrimidin-4-yl)pyridin-2-yl)isoxazol-5-yl)pyrrolidin-2-one], the IC50 was over 500 nM. Cc1cnccc1Nc1nccc(-c2cccc(-c3cc([C@]4(O)CCN(C)C4=O)on3)n2)n1 [Example 246, (R)-3-Hydroxy-1-methyl-3-(3-(6-(2-((3-methylpyridin-4-yl)amino)pyrimidin-4-yl)pyridin-2-yl)isoxazol-5-yl)pyrrolidin-2-one] was tested, and the IC50 was over 500 nM. For CN1CC[C@@](O)(c2cc(-c3cccc(-c4ccnc(Nc5cccnc5)n4)n3)no2)C1=O [Example 247, (R)-3-Hydroxy-1-methyl-3-(3-(6-(2-(pyridin-3-ylamino)pyrimidin-4-yl)pyridin-2-yl)isoxazol-5-yl)pyrrolidin-2-one], the IC50 was over 500 nM. CN1CC[C@@](O)(c2cc(-c3cccc(-c4ccnc(Nc5ccccn5)n4)n3)no2)C1=O [Example 248, (R)-3-Hydroxy-1-methyl-3-(3-(6-(2-(pyridin-2-ylamino)pyrimidin-4-yl)pyridin-2-yl)isoxazol-5-yl)pyrrolidin-2-one] gave an IC50 of 50 to 500 nM. With CN1CC[C@@](O)(c2cc(-c3cccc(-c4ccnc(Nc5ccncc5)n4)n3)no2)C1=O [Example 249, (R)-3-Hydroxy-1-methyl-3-(3-(6-(2-(pyridin-4-ylamino)pyrimidin-4-yl)pyridin-2-yl)isoxazol-5-yl)pyrrolidin-2-one] the IC50 was under 50 nM. For CCn1cc(Nc2nccc(-c3cccc(-c4cc([C@]5(O)CCN(C)C5=O)on4)n3)n2)c(C)n1 [Example 250, (R)-3-(3-(6-(2-((1-Ethyl-3-methyl-1H-pyrazol-4-yl)amino)pyrimidin-4-yl)pyridin-2-yl)isoxazol-5-yl)-3-hydroxy-1-methylpyrrolidin-2-one], the IC50 was under 50 nM.

Source: patent publication US20250282768A1 (Janssen Pharmaceutica NV, priority 2022, published 2025)
